Data published in patent US20240108602A1, “TREATMENT OF MENTAL DISORDERS” (GH Research Ireland Limited, priority 2022, published 2024).
Where “and” joins values, the source holds several entries; their conditions need not be identical. Equal entries are not always repeated.

Tested on: patients with treatment-resistant major depressive disorder (TRD)
Assay: Phase 1/2 clinical trial of inhaled 5-MeO-DMT in TRD patients (12 mg, 18 mg, individualized dosing regimen IDR 6/12/18 mg)
Method: Patients were assigned to different groups. In the context of the present invention, the group who received a single, 12 mg dose and the group who underwent an intra-day individualized dosing regimen (IDR) that allowed for multiple, escalating doses (6 mg, 12 mg and 18 mg) within a single day, driven by the intensity of the patient-reported psychedelic experience are of interest.
The data gathered include the assessment of the treated patients against several scales including the Montgomery-Åsberg Depression Rating Scale (MADRS) and the Brief Psychiatric Rating Scale (BPRS).
This trial was designed in two parts. Part A was an open-label, single-arm, single-dose Phase 1 trial with two dose levels (12 mg (n=4) and 18 mg (n=4)). […] The primary endpoint of Part B was to assess the effects on the severity of depression, as assessed by the proportion of patients in remission on day seven after dosing, defined as a MADRS total score of less than or equal to 10.

COc1ccc2[nH]cc(CCN(C)C)c2c1 [5-MeO-DMT]
MADRS Concentration Difficulties improvement (points) (12 mg n=4, 2 h): 9 | MADRS Concentration Difficulties percentage improvement (12 mg n=4, 2 h): 56% and 56.25% | MADRS Concentration Difficulties summed score (12 mg n=4, 2 h): 7 | MADRS Inability to Feel improvement (points) (12 mg n=4, 2 h): 7 | MADRS Inability to Feel percentage improvement (12 mg n=4, 2 h): 44% and 43.75% | MADRS Inability to Feel summed score (12 mg n=4, 2 h): 9 | MADRS Inner Tension improvement (points) (12 mg n=4, 2 h): 11 | MADRS Inner Tension percentage improvement (12 mg n=4, 2 h): 85% and 84.62% | MADRS Inner Tension summed score (12 mg n=4, 2 h): 2 | MADRS Lassitude improvement (points) (12 mg n=4, 2 h): 6 | MADRS Lassitude percentage improvement (12 mg n=4, 2 h): 38% and 37.50% | MADRS Lassitude summed score (12 mg n=4, 2 h): 10 | MADRS Pessimistic Thoughts improvement (points) (12 mg n=4, 2 h): 8 | MADRS Pessimistic Thoughts percentage improvement (12 mg n=4, 2 h): 50% | MADRS Pessimistic Thoughts summed score (12 mg n=4, 2 h): 8 | MADRS Suicidal Thoughts improvement (points) (12 mg n=4, 2 h): 5 | MADRS Suicidal Thoughts percentage improvement (12 mg n=4, 2 h): 63% and 62.50% | MADRS Suicidal Thoughts summed score (12 mg n=4, 2 h): 3 | BPRS Anxiety improvement (points) (12 mg n=4, 3 h): 14 | BPRS Anxiety percentage improvement (12 mg n=4, 3 h): 56% | BPRS Anxiety summed score (12 mg n=4, 3 h): 11 | BPRS Blunted Affect improvement (points) (12 mg n=4, 3 h): 3 | BPRS Blunted Affect percentage improvement (12 mg n=4, 3 h): 27% and 27.27% | BPRS Blunted Affect summed score (12 mg n=4, 3 h): 8 | BPRS Emotional Withdrawal improvement (points) (12 mg n=4, 3 h): 2 | BPRS Emotional Withdrawal percentage improvement (12 mg n=4, 3 h): 15% and 15.38% | BPRS Emotional Withdrawal summed score (12 mg n=4, 3 h): 11 | BPRS Guilt Feelings improvement (points) (12 mg n=4, 3 h): 9 | BPRS Guilt Feelings percentage improvement (12 mg n=4, 3 h): 50% | BPRS Guilt Feelings summed score (12 mg n=4, 3 h): 9 | BPRS Tension improvement (points) (12 mg n=4, 3 h): 5 | BPRS Tension percentage improvement (12 mg n=4, 3 h): 36% and 35.71% | BPRS Tension summed score (12 mg n=4, 3 h): 9 | BPRS Anxiety improvement (points) (12 mg n=4, Day 1): 19 | BPRS Anxiety percentage improvement (12 mg n=4, Day 1): 76% | BPRS Anxiety summed score (12 mg n=4, Day 1): 6 | BPRS Blunted Affect improvement (points) (12 mg n=4, Day 1): 5 | BPRS Blunted Affect percentage improvement (12 mg n=4, Day 1): 45% and 45.45% | BPRS Blunted Affect summed score (12 mg n=4, Day 1): 6 | BPRS Emotional Withdrawal improvement (points) (12 mg n=4, Day 1): 5 | BPRS Emotional Withdrawal percentage improvement (12 mg n=4, Day 1): 38% and 38.46% | BPRS Emotional Withdrawal summed score (12 mg n=4, Day 1): 8 | BPRS Guilt Feelings improvement (points) (12 mg n=4, Day 1): 13 | BPRS Guilt Feelings percentage improvement (12 mg n=4, Day 1): 72% and 72.22% | BPRS Guilt Feelings summed score (12 mg n=4, Day 1): 5 | BPRS Tension improvement (points) (12 mg n=4, Day 1): 8 | BPRS Tension percentage improvement (12 mg n=4, Day 1): 57% and 57.14% | BPRS Tension summed score (12 mg n=4, Day 1): 6 | MADRS Concentration Difficulties improvement (points) (12 mg n=4, Day 1): 14 | MADRS Concentration Difficulties percentage improvement (12 mg n=4, Day 1): 88% and 87.50% | MADRS Concentration Difficulties summed score (12 mg n=4, Day 1): 2 | MADRS Inability to Feel improvement (points) (12 mg n=4, Day 1): 15 | MADRS Inability to Feel percentage improvement (12 mg n=4, Day 1): 94% and 93.75% | MADRS Inability to Feel summed score (12 mg n=4, Day 1): 1 | MADRS Inner Tension improvement (points) (12 mg n=4, Day 1): 10 | MADRS Inner Tension percentage improvement (12 mg n=4, Day 1): 77% and 76.92% | MADRS Inner Tension summed score (12 mg n=4, Day 1): 3 | MADRS Lassitude improvement (points) (12 mg n=4, Day 1): 16 | MADRS Lassitude percentage improvement (12 mg n=4, Day 1): 100% | MADRS Lassitude summed score (12 mg n=4, Day 1): 0 | MADRS Pessimistic Thoughts improvement (points) (12 mg n=4, Day 1): 9 | MADRS Pessimistic Thoughts percentage improvement (12 mg n=4, Day 1): 56% and 56.25% | MADRS Pessimistic Thoughts summed score (12 mg n=4, Day 1): 7 | MADRS Reduced Sleep improvement (points) (12 mg n=4, Day 1): 2 | MADRS Reduced Sleep percentage improvement (12 mg n=4, Day 1): 17% and 16.67% | MADRS Reduced Sleep summed score (12 mg n=4, Day 1): 10 | MADRS Suicidal Thoughts improvement (points) (12 mg n=4, Day 1): 3 | MADRS Suicidal Thoughts percentage improvement (12 mg n=4, Day 1): 38% and 37.50% | MADRS Suicidal Thoughts summed score (12 mg n=4, Day 1): 5 | BPRS Anxiety improvement (points) (12 mg n=4, Day 7): 19 | BPRS Anxiety percentage improvement (12 mg n=4, Day 7): 76% | BPRS Anxiety summed score (12 mg n=4, Day 7): 6 | BPRS Blunted Affect improvement (points) (12 mg n=4, Day 7): 6 | BPRS Blunted Affect percentage improvement (12 mg n=4, Day 7): 55% and 54.55% | BPRS Blunted Affect summed score (12 mg n=4, Day 7): 5 | BPRS Emotional Withdrawal improvement (points) (12 mg n=4, Day 7): 7 | BPRS Emotional Withdrawal percentage improvement (12 mg n=4, Day 7): 54% and 53.85% | BPRS Emotional Withdrawal summed score (12 mg n=4, Day 7): 6 | BPRS Guilt Feelings improvement (points) (12 mg n=4, Day 7): 13 | BPRS Guilt Feelings percentage improvement (12 mg n=4, Day 7): 72% and 72.22% | BPRS Guilt Feelings summed score (12 mg n=4, Day 7): 5 | BPRS Tension improvement (points) (12 mg n=4, Day 7): 8 | BPRS Tension percentage improvement (12 mg n=4, Day 7): 57% and 57.14% | BPRS Tension summed score (12 mg n=4, Day 7): 6 | MADRS Concentration Difficulties improvement (points) (12 mg n=4, Day 7): 13 | MADRS Concentration Difficulties percentage improvement (12 mg n=4, Day 7): 81% and 81.25% | MADRS Concentration Difficulties summed score (12 mg n=4, Day 7): 3 | MADRS Inability to Feel improvement (points) (12 mg n=4, Day 7): 15 | MADRS Inability to Feel percentage improvement (12 mg n=4, Day 7): 94% and 93.75% | MADRS Inability to Feel summed score (12 mg n=4, Day 7): 1 | MADRS Inner Tension improvement (points) (12 mg n=4, Day 7): 8 | MADRS Inner Tension percentage improvement (12 mg n=4, Day 7): 62% and 61.54% | MADRS Inner Tension summed score (12 mg n=4, Day 7): 5 | MADRS Lassitude improvement (points) (12 mg n=4, Day 7): 13 | MADRS Lassitude percentage improvement (12 mg n=4, Day 7): 81% and 81.25% | MADRS Lassitude summed score (12 mg n=4, Day 7): 3 | MADRS Pessimistic Thoughts improvement (points) (12 mg n=4, Day 7): 8 | MADRS Pessimistic Thoughts percentage improvement (12 mg n=4, Day 7): 50% | MADRS Pessimistic Thoughts summed score (12 mg n=4, Day 7): 8 | MADRS Reduced Sleep improvement (points) (12 mg n=4, Day 7): 6 | MADRS Reduced Sleep percentage improvement (12 mg n=4, Day 7): 50% | MADRS Reduced Sleep summed score (12 mg n=4, Day 7): 6 | MADRS Suicidal Thoughts improvement (points) (12 mg n=4, Day 7): 1 | MADRS Suicidal Thoughts percentage improvement (12 mg n=4, Day 7): 13% and 12.50% | MADRS Suicidal Thoughts summed score (12 mg n=4, Day 7): 7 | patients with MADRS remission (12 mg n=4, day seven): 50% | mean MADRS change from baseline (12 mg, day seven): −21.0 | mean MADRS change from baseline, percent (12 mg, day seven): −65% | further patients with MADRS clinical response (18 mg n=4, day seven): 25% | patients with MADRS remission (18 mg n=4, day seven): 25% | mean MADRS change from baseline, percent (18 mg, day seven): −41% | patients maintaining remission (fraction) (Day 7): ⅞
